In US6468541B2, “Natural, non-allergenic, immune system stimulant” (Chinese Herbal USA, Inc., priority 2000, dated 2002):

Legend:
[1] = test system: normal PBMC; conditions: glycyrrhizin alone; cited from earlier work
[2] = test system: peripheral blood mononuclear cells (PBMC); test: IL-1β secretion by PBMC incubated 72 h with Immune+™ with or without PHA, ELISA (Example 2); format: cell-based, human; conditions: PHA alone, 10 μg/ml
Protocol: (§1) Ten mg of Immune+™ was suspended in 1 ml RPMI-1640 with 10% heat inactivated fetal bovine serum (media). The suspension was shaken vigorously on a vortex mixer. The insoluble components were quickly pelleted and the remaining suspension filtered twice: first through a 0.45 micron syringe filter followed by a 0.2 micron syringe filter. This filtrate was used as our stock (approx. 10 mg/ml) from which dilutions were made for the incubations with PBMC. The stock solution was diluted in media prior to treatment with PBMC.
(§2) Volunteers of various ethnic backgrounds and ranging in age from 18-35 years, participated in this study. […] Viability was determined by trypan blue exclusion and was consistently >96%. […]
(§3) Aliquots of culture supernates were frozen immediately upon harvest and stored at −20° C. until analysis by ELISA. Concentrations of IL-1 β and IFN-γ were determined using the DuoSet® ELISA Development System (R & D Systems, Minneapolis, Minn.) with a detection limit of 3.9 and 15.6 pg/ml respectively.
(§4) The effects of various concentrations of Immune+™ on IL-1β and IFN-γ production in either unstimulated or PHA-stimulated PBMC were analyzed using a one-way ANOVA followed by post-hoc Tukey comparison. […]
(§5) The concentrations of IL-1β and IFN-γ in the supernate were measured by ELISA.

[3] = test system: peripheral blood mononuclear cells (PBMC); test: IFN-γ secretion by PBMC incubated 72 h with Immune+™ with or without PHA, ELISA (Example 2); format: cell-based, human; conditions: PHA alone, 10 μg/ml
Protocol: as §1, §2, §3, §4, §5

Row | Molecule | IFN-γ production [1] | IL-1β production [2] | IFN-γ production [3]
1 | CC1(C)[C@@H](O[C@H]2O[C@H](C(=O)O)[C@@H](O)[C@H](O)[C@H]2O[C@@H]2O[C@H](C(=O)O)[C@@H](O)[C@H](O)[C@H]2O)CC[C@]2(C)[C@H]3C(=O)C=C4[C@@H]5C[C@@](C)(C(=O)O)CC[C@]5(C)CC[C@@]4(C)[C@]3(C)CC[C@@H]12 [glycyrrhizin, 20β-carboxy-11-oxo-30-norolean-12-en-3 βyl-2-O-β-D-glucopyranuronosyl-α-D-glucopyranosiduronic acid] | did not markedly alter |  | 
2 | phytohemagglutinin [PHA] |  | no effect | resulted in a production of IFN-γ
